One experiment relates to hESC-3R colony. Put plainly: 3D cVO creation in 96-well plate with a range of CHIR. It is filed as cell-based, human. The conditions noted are these: 3D cVOs, day 14, CHIR 6.0-8.5 uM. On the procedure:
For 3D cVO creation, two methods were used. In the first method, stencils with single 2 mm center holes were placed in 24-well plates with Softwell Easy Coat hydrogels with a custom stiffness of 16 […]) and hESC-3R cells were micropatterned as described above. In the second method, to increase throughput and eliminate using stencils, each well of a black 96-well plate ([…]-32EA, Sigma-Aldrich) was freshly coated with a central, 2 uL drop of Matrigel (1:400 dilution) and was then seeded with 125,000 hESC-3R cells. Cells were allowed to attach and grow for 2-4 days forming a single, homogenous, round colony in the center of each well. The same differentiation protocol for 2D cVOs was then used to create 3D cVOs from days 0-14, using a range of CHIR from 6.0-8.5 μM.

Experiment [1] relates to hESC-3R micropatterns. As to the kind of experiment: CHIR concentrations and VEGF addition on CM and EC co-differentiation over 14 days. It is filed as cell-based, human. To be noted: day 14.
Experiment [2] has as its system hESC-3R micropatterns. As to the kind of experiment: cVO differentiation screening, 34 conditions, CM/EC/SMC total fluorescence area. Format: cell-based, human. The text has this:
Cardiac Vascularized Organoid (cVO) Differentiation. See FIG. 3C, FIG. 10H-I, and Table 1 for an overview of our thirty-four (34) cardiovascular (CV) differentiation screening conditions to produce cVOs. The Control groups utilized only CHIR, FGF2, and IWR. To begin, hPSCs suspended in single cells were transferred to Matrigel-coated non-micropatterned or micropatterned surfaces as described above and differentiated in RPMI-1640 media (61870, Thermo Fisher Scientific) supplemented with B27 without insulin (A1895601, Thermo Fisher Scientific) (RB-I). The CV differentiation was based on the baseline differentiation described previously to promote CM differentiation and contained several additional small molecules and growth factors to promote simultaneous endothelial and smooth muscle cell co-differentiation. On Day 0, for primarily mesoderm induction, basal medium was supplemented with 4 or 5 μM CHIR99021 (CHIR) (S2924, Selleck Chemicals) and 5 ng/ml FGF-2 (FGF2) (100-18B, PeproTech). On Day 3, for CM induction, 5 uM IWR-1 (IWR) (S7086, Selleck Chemicals) was added. On Days 5-16, to simultaneously induce endothelial cell vasculogenesis and angiogenesis along with the cardiomyocyte differentiation, we added combinations of 50 ng/ml VEGF-165 (VEGF) (Days 5, 7, 9, 11, 13) (100-20, PeproTech); 5 ng/ml FGF-2 (FGF2) (Days 7, 9, 11, 13) (100-18B, PeproTech); 10 uM SB431542 (SB) (Days 7, 9, or 11) ([…], Selleck Chemicals); 50 ng/ml Angiopoietin-2 (ANG2) (Days 5 and 7) (130-07, PeproTech); 50 ng/ml Angiopoietin-1 (ANG1) (Days 9 and 11) (130-06, PeproTech); and select components of the VascuLife® VEGF LifeFactors® Kit (Aghajanian et al., 2016) (LS-1020, Lifeline Cell Technology) (Days 5, 7, 9, 11, and 13) (5 ng/ml EGF, 15 ng/ml IGF-1, 50 μg/mL ascorbic acid, 0.75 U/mL heparin sulfate, […]). On Days 7-16, to simultaneously induce smooth muscle cell differentiation with cardiomyocyte and endothelial cell differentiation, we added 2.5 or 10 ng/ml PDGF-BB (PDGFBB) (Days 7, 9, 11, 13) (100-14B, PeproTech) and 0.5 or 2 ng/ml TGF-β1 (TGFβ) (Days 7, 9, 11, 13) (100-21C, PeproTech). To increase throughput, screening time-lapse microscopy was performed with the Cytation 5 Cell Imaging Multi-Mode Reader (BioTek). Five (5) forty-eight (48)-well plates (204 out of 240 wells) were imaged over the differentiation time-period. The plates contained a single 2 mm circular micropattern of undifferentiated hESC-3R cells in the center of each well subjected to thirty-four (34) differentiation conditions, with nominally 4-6 replicates per condition, imaged at six (6) timepoints (Days 3, 5, 8, 10, 12, and 16 (D3-D16)). After all raw images were acquired, image analysis was performed with Gen5 v3.05 software (BioTek). Images in each channel and each 4×4 array were stitched to create a single mosaic image; 4728 mosaics were created, and each mosaic image was downsized by 25%. Next, image processing of each mosaic was performed to reduce background independently in each channel. Finally, for each channel, thresholding was performed on fluorescence intensity along with minimum and maximum object size to calculate the total Phase, CFP, GFP, and mOrange total fluorescence area in each well for each condition at each timepoint. Each mosaic image was computationally masked by a circular “plug” to eliminate fluorescence artifact created by well edges. For each condition, values for replicate samples were summed, and the mean and standard deviation were calculated.

In another experiment the test system is RUES-GLR hESCs. Put plainly: Germ layer formation under different CHIR concentrations. It is filed as cell-based, human. The conditions noted are these: CHIR 4 uM added at day 0, day 6.
Another experiment concerns cVO EC formation. To be noted: for time course of detrimental effect on EC formation (regression coefficients): multiple linear regression fit, 16 days; for effect on vascularization of cVOs: pathway inhibitors, summary; for EC location within cVO: day 16.
The test system of a further experiment is cVOs. As to the kind of experiment: Beat rate with isoproterenol treatment, cVOs. Format: cell-based, human. The conditions noted are these: isoproterenol 0, 1, and 10 uM; n=16. An excerpt: Cardiac Vascularized Organoid (cVO) Differentiation. See FIG. 3C, FIG. 10H-I, and Table 1 for an overview of our thirty-four (34) cardiovascular (CV) differentiation screening conditions to produce cVOs. The Control groups utilized only CHIR, FGF2, and IWR. To begin, hPSCs suspended in single cells were transferred to Matrigel-coated non-micropatterned or micropatterned surfaces as described above and differentiated in RPMI-1640 media (61870, Thermo Fisher Scientific) supplemented with B27 without insulin (A1895601, Thermo Fisher Scientific) (RB-I). The CV differentiation was based on the baseline differentiation described previously to promote CM differentiation and contained several additional small molecules and growth factors to promote simultaneous endothelial and smooth muscle cell co-differentiation. […] We assessed the contractility of Control and cVO groups in a similar manner as we have previously described. Contraction of beating CMs within the micropatterns was recorded with high-resolution motion capture tracking (75 fps) using the SI8000 Live Cell Motion Imaging System (Sony Corporation). […] Functional parameters were assessed from the averaged contraction-relaxation waveforms from 10 sec recordings, using the S[…] […] The software was used to detect motion vectors and quantify beating rate, contraction velocity, relaxation velocity, and contraction-relaxation peak interval of cVOs.

In experiment [3] the test system is Controls (baseline cardiomyocyte differentiation). Put plainly: Beat rate with isoproterenol treatment, Controls. It is filed as cell-based, human. The conditions noted are these: isoproterenol 0, 1, and 10 uM; n=15. An excerpt: Baseline Cardiomyocyte (CM) Differentiation. For baseline cardiomyocyte (CM) differentiation (Control group), hPSCs were transferred to Matrigel-coated non-micropatterned and micropatterned surfaces as described above and differentiated in RPMI-1640 media (61870, Thermo Fisher Scientific) supplemented with B27 without insulin (A1895601, Gibco/Thermo Fisher Scientific). Our baseline differentiation method was based on a small molecule-based monolayer method (Lian et al., 2012; Burridge et al., 2014). Briefly, on the first day (Day 0) of differentiation, basal medium was supplemented with 4, 5, or 6 μM CHIR99021 (CHIR) (S2924, Selleck Chemicals) and 5 ng/mL FGF-2 (FGF2) (100-18B, PeproTech). On Day 2, the medium was replaced with basal medium containing B27 without insulin. […] We assessed the contractility of Control and cVO groups in a similar manner as we have previously described. Contraction of beating CMs within the micropatterns was recorded with high-resolution motion capture tracking (75 fps) using the SI8000 Live Cell Motion Imaging System (Sony Corporation). […] Functional parameters were assessed from the averaged contraction-relaxation waveforms from 10 sec recordings, using the S[…] […] The software was used to detect motion vectors and quantify beating rate, contraction velocity, relaxation velocity, and contraction-relaxation peak interval of cVOs.

[4] abbreviates: CHIR 4 vs 5 uM for each condition, day 12.

“Also recorded” adds a separate entry of the source. Where two headings read alike, the source gives them in different places.

As to `Cc1cnc(-c2cnc(NCCNc3ccc(C#N)cn3)nc2-c2ccc(Cl)cc2Cl)[nH]1` [CHIR, 6-[[2-[[4-(2,4-Dichlorophenyl)-5-(5-methyl-1H-imidazol-2-yl)-2-pyrimidinyl]amino]ethyl]amino]-3-pyridinecarbonitrile], the “CHIR concentration giving the most CMs and ECs” value in the experiment with hESC-3R colony is 7.0 µM. In addition, the “CHIR concentration giving the most CMs” value in the experiment with hESC-3R micropatterns [1] (CHIR+FGF2+IWR (Control), CHIR 3, 4, and 5 uM) came out at 5 µM. The “CHIR concentration giving the most CMs and ECs” value in the experiment on hESC-3R micropatterns [1] (CHIR+FGF2+IWR+VEGF 50 ng/ml) stood at 5 µM. Moreover, in the experiment on hESC-3R micropatterns [2] (34 screening conditions, CHIR 4 uM vs 5 uM), the “CHIR concentration giving the most CMs, ECs, and SMCs” value was 5 µM. Further, in the experiment with hESC-3R micropatterns [2] (setting [4]), the “CHIR concentration giving the most CMs (GFP total fluorescence area)” value came out at 5 µM, the “CHIR concentration giving the most ECs (mOr total fluorescence area)” value worked out at 5 µM and the “CHIR concentration giving the most SMCs (CFP total fluorescence area)” value was determined as 5 µM. Moreover, the “germ layer formation in micropatterned RUES-GLR hESCs” value in the experiment with RUES-GLR hESCs is “central BRA+ mesodermal area was surrounded by a SOX17+ endodermal ring and no SOX2 ectodermal expression; also recorded: BRA+ mesodermal central area surrounded by a SOX17+ endodermal ring, with no SOX2 ectodermal expression”.
Consider `C[C@H](NC(=O)Cc1cc(F)cc(F)c1)C(=O)N[C@H](C(=O)OC(C)(C)C)c1ccccc1` [DAPT], for which, in the experiment on cVO EC formation (DAPT 1 vs 10 uM), the “difference in cVO EC formation between concentrations” value (“difference” below) is recorded as “no significant (ns) difference”. Also, in the experiment on cVO EC formation, the “time course of detrimental effect on EC formation (regression coefficients)” value is recorded as “decays over time” and the “effect on vascularization of cVOs” value was “general disruptive effects on vascularization”.
Consider `Cl.Cl.c1cc(-c2cnn3cc(-c4ccc(OCCN5CCCCC5)cc4)cnc23)ccn1` [Dorsomorphin, 6-[4-[2-(1-Piperidinyl)ethoxy]phenyl]-3-(4-pyridinyl)-pyrazolo[1,5-a]pyrimidine dihydrochloride], for which the “difference” value with cVO EC formation (Dorsomorphin 0.1 vs 1.0 uM) was “no significant (ns) difference”. Further, in the experiment on cVO EC formation, the “time course of detrimental effect on EC formation (regression coefficients)” value is on record as “exponentially increases” and the “effect on vascularization of cVOs” value was “general disruptive effects on vascularization”.
As to `CC(C)NCC(O)c1ccc(O)c(O)c1` (stereo not shown) [isoproterenol], the “Beat rate of cVOs” value with cVOs is “significantly increased; also recorded: increases”. For the same compound, the “Beat rate of Controls” value in experiment [3] is reported as “significantly increased; also recorded: increases”.
For Angiostatin, the “EC location within cVO” value is listed as “ECs congregated in the center area of starting micropatterns” in the experiment with cVO EC formation (Angiostatin 0.1 ug/mL) and “ECs congregated at the periphery of starting micropatterns” with cVO EC formation (Angiostatin 1.0 ug/mL). In addition, the “difference” value with cVO EC formation (Angiostatin 0.1 vs 1.0 ug/mL) was “no significant (ns) difference”. The “effect on vascularization of cVOs” value with cVO EC formation is listed as “general disruptive effects on vascularization”.
Regarding VEGF, in the experiment with hESC-3R micropatterns [2] (VEGF alone, 50 ng/ml, day 12), the “EC formation (mOr) compared to Control, FGF2 alone and SB alone” value is given as “most ECs”; the “effect on CM formation (GFP)” value is given as “no statistical (ns) effect”.

The values above are taken from patent US20250154467A1, “CREATION OF VASCULARIZED BIOLOGICAL STRUCTURES” (The Board of Trustees of the Leland Stanford Junior …, priority 2022, published 2025).
